Measured values taken from patent US20070161547A1, “Modulation of survivin expression” (priority 2003, published 2007).
Where two headings read alike, the source gives them in different places.

Tested on: human survivin mRNA
Experiment: IC50 of dsRNA for survivin mRNA, dose response by quantitative RT-PCR ("D")
Format: cell-based
Settings: D (dose response, mRNA levels), read-out: IC50
Protocol: Representative parameters that can be studied include, for example, translation of survivin mRNAs or survivin protein synthesis; effect on surrogate markers; or any other parameter that is indicative of potential dsRNA therapeutic effectiveness that can be conveniently measured in vitro.
For western blot analysis, cells are plated in 10 cm tissue culture dishes (Falcon, #3003) at a density of 7.5×10^5 cells/dish. For RT-PCR analysis, 96-well plates (Corning Incorporated, #3596) are plated with 1×10^4 cells/well. Lipofectin (GIBCO/Invitrogen) transfection reagent is used at a concentration of 3 ul/ml OPTIMEM reduced serum medium (Gibco/Invitrogen)/100 nM siRNA duplex. Lipofectin reagent is incubated with OPTIMEM medium for 30 minutes prior to the addition of siRNA. The desired amount of siRNA is added and mixed. Further 1:1 dilutions are performed in OPTIMEM. Cells are washed twice with 1× phosphate buffered saline and then treated with the siRNA/Lipofectin mixture in OPTIMEM. After a 4 hr incubation period, OPTIMEM medium is replaced with complete growth medium. Cells are harvested after additional 16-20 hrs for Western blot or RT-PCR analysis.
Total RNA is isolated using RNeasy® 96 kit according to recommended protocol (Qiagen). Briefly, cells are washed with 200 ul PBS after removal of growth medium. Following washing, 100 μl buffer RLT is added, plate is shaken vigorously for about 20 seconds. To each well 100 μl 70% ethanol are added and mixed by pipetting up and down three times. Samples are then applied into the wells of the RNeasy 96 plate placed in the QIAvac top base of the QIAvac 96 manifold, which is attached to a vacuum source. Vacuum is applied for 30 seconds or until transfer is complete. To each well 80 μl of DNase I incubation mix (20 mM Tris-HCl, pH 8.4, 2 mM MgCl2, 50 mM KCl and 225 Units/ml DNase I from Invitrogen) is added and incubated at room temperature for 30 minutes. Buffer RW1 (1 ml/well) is added and the vacuum is applied for 30 seconds. Buffer RPE (1 ml/well) is added to each well and vacuum is applied for 30 seconds. Washing steps with buffer RW1 and RPE1 are repeated once more. The plate is then removed from the manifold and blotted dry on paper towels. The plate is placed back in the QIAvac manifold and the vacuum is applied for 10 minutes. To elute RNA 30 μl of RNase-free water is added directly onto the membrane of each well, incubated for 1 minutes and vacuum is applied for 30 seconds. In order to maximize the recovery of total RNA the elution step is repeated with additional 30 μl/well RNase-free water.
Quantitation of survivin and GAPDH mRNA levels is determined by real-time quantitative RT-PCR using the ABI PRISM® 7900 Sequence Detection System (Applied Biosystems). RT-PCR reactions are carried out by adding 15 ul of TaqMan One Step PCR Master Mix (Applied Biosystems, #4309169) reagents (containing 100 nM each of forward primer and reverse primer, and 200 nM probe) to 96-well plates with 10 μl total RNA. For human survivin, the forward PCR primer is: 5′[…]3′ (SEQ ID NO: 186), and the reverse primer is: 5′[…]3′ (SEQ ID NO: 187). The survivin TaqMan® probe used is 5′(FAM)[…]3′ (SEQ ID NO: 188) (Biosearch Technologies, Inc.). This primer-probe set, designed to SEQ ID No 14 was used for all experiments in Examples 15 to the end. For human GAPDH, TaqMan GAPDH Control Reagent Kit is used (Applied Biosystems, #402869). The percentage inhibition for each samples are calculated by comparing the survivin/GAPDH mRNA ratio for the sample to survivin/GAPDH mRNA ratio for the untreated control. The IC50 is derived from the non-linear regression analysis of the percentage inhibition data using GraphPad Prism software (GraphPad Software).
The constructs tested comprise the antisense strand in the 5′-3′ orientation, and the sense strand in the 5′ to 3′ orientation, In Table 15, “D” is dose response (mRNA levels) and “W” is Western blot. […]

In the case of “339045_339075 (antisense AUCCAUGGCAGCCAGCUGCU; sense AGCAGCUGGCUGCCAUGGAU; siRNA; unmodified RNA)”, the IC50 (HeLa cells) is reported as 3.3 nM and the IC50 (U-87 MG cells) is reported as 0.68 nM.

“339048_339078 (antisense AUUUGAAAAUGUUGAUCUCC; sense GGAGAUCAACAUUUUCAAAU; siRNA; unmodified RNA)” showed an IC50 (U-87 MG cells) of 0.34 nM.

For “339052_339082 (antisense GCAAAAGGGACACUGCCUUC; sense GAAGGCAGUGUCCCUUUUGC; siRNA; unmodified RNA)”, the IC50 (HeLa cells) was 2.41 nM and the IC50 (U-87 MG cells) was 1.15 nM.

In the case of “339056_339086 (antisense UAAGGAACCUGCAGCUCAGA; sense UCUGAGCUGCAGGUUCCUUA; siRNA; unmodified RNA)”, the IC50 (HeLa cells) is reported as 1.72 nM and the IC50 (U-87 MG cells) is reported as 0.51 nM.

“339058_339088 (antisense AACAAAAUAAGAAAGCCAUG; sense CAUGGCUUUCUUAUUUUGUU; siRNA; unmodified RNA)” was tested, and the IC50 (HeLa cells) was 2.96 nM.

“339060_339090 (antisense AGUUUGUGCUAUUCUGUGAA; sense UUCACAGAAUAGCACAAACU; siRNA; unmodified RNA)” showed an IC50 (HeLa cells) of 3.38 nM.
